Results reported in patent publication US9308200B2, “Dry powder formulation comprising a phosphodiesterase inhibitor” (CHIESI FARMACEUTICI S.p.A., priority 2010, dated 2016).

Tested on: OVA-induced eosinophilia in BALF
Test: Acute model of lung inflammation: OVA-induced eosinophilia in BALF of sensitized rats
Assay type: in vivo
Conditions: male Brown-Norway rats; micronized C2 blended with lactose, intratracheal single dose 2 hours before antigen aerosol; range in brackets 0.016 to 0.051
Protocol: The potency of one of the preferred compounds of the present invention was evaluated in vivo in an acute model of lung inflammation following a method described in Eur. J. Pharmacol., 2002 Feb. 22; 437(3):187-94 (which is incorporated herein by reference in its entirety), with minor modifications. Briefly, male Brown-Norway rats (150-200 g) were sensitized by intraperitoneal injection of a suspension containing ovalbumin (OVA, 1 mg/rat) and Al(OH)3 (100 mg/rat) in 1 mL of saline for 3 consecutive days. Two-three weeks later, the airway inflammation was induced by inhaled antigen (OVA, 1% in saline). Vehicle-control treated animals were exposed to an aerosol of saline. […] For the detection of inhibitory potency, micronized compound C2 was blended with lactose at different concentrations and administered by the intratracheal route as single dose 2 hours before antigen aerosol.
A dose-response curve of the inhibitory effect of the test compound on OVA-induced eosinophilia in BALF was performed and the ED50 dose of compound C2 was taken as a measure of potency in this bioassay.

`CS(=O)(=O)Nc1ccc(C(=O)OC(Cc2c(Cl)c[n+]([O-])cc2Cl)c2ccc(OC(F)F)c(OCC3CC3)c2)cc1OCC1CC1` (single isomer, unassigned; (-)) [Compound C2, (−)-3-Cyclopropylmethoxy-4-methanesulfonylamino-benzoic acid 1-(3-cyclopropylmethoxy-4-difluoromethoxy-phenyl)-2-(3,5-dichloro-1-oxy-pyridin-4-yl)-ethyl ester] was tested, and the “ED50 dose, inhibition of OVA-induced eosinophilia in BALF” value was 0.028 µmol/kg.
